Experimental findings from publication PMC9631745 (ACS Omega, 2022) are described below.

Molecules are shown by their SMILES.

Broadly, the Kd is the equilibrium constant for the complex coming apart. Read a high Kd as weaker binding.

The target in this assay is human transferrin (Tf; hTf) (Homo sapiens, UniProt P02787). Nature of the assay: isothermal titration calorimetry. Type of assay: binding. For orientation: ITC needs no label: the signal is the heat of the interaction.
Chain of human transferrin (Tf; hTf) (P02787 20-698): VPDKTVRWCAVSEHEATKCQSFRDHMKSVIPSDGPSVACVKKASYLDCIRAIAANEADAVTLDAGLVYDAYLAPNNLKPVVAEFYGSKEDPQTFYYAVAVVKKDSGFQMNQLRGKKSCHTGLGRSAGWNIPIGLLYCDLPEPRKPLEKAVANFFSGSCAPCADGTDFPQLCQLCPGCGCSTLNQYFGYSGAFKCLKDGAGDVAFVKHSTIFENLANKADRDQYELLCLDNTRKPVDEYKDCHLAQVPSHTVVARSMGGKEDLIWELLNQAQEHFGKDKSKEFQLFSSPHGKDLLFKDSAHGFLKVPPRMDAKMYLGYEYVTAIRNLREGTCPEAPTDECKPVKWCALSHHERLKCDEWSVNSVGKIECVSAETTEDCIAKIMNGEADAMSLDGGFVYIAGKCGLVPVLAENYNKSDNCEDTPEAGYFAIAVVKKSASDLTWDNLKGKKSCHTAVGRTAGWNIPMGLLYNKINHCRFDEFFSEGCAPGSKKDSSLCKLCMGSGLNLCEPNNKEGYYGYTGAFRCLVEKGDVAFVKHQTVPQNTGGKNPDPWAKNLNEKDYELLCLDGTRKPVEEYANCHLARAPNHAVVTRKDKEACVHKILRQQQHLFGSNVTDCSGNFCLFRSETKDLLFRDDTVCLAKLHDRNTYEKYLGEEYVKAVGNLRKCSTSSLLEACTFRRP

The compound `C/C=C1\[C@H]2C=C(C)C[C@]1(N)c1ccc(=O)[nH]c1C2` [Huperzine A] showed a Kd of 1450 nM.
